ChEMBL document CHEMBL3639191, “Benzimidazole derivatives: preparation and pharmaceutical applications” (2013)

Assays:
Histone deacetylase 8 = target: T1, Histone deacetylase 8 (Homo sapiens, UniProt Q9BY41); assay: (§1) Enzyme Assay: The assay have been carried out in a 96 well format and the BIOMOL using a fluorescent-based HDAC activity assay.
T1 sequence (Q9BY41 whole entry): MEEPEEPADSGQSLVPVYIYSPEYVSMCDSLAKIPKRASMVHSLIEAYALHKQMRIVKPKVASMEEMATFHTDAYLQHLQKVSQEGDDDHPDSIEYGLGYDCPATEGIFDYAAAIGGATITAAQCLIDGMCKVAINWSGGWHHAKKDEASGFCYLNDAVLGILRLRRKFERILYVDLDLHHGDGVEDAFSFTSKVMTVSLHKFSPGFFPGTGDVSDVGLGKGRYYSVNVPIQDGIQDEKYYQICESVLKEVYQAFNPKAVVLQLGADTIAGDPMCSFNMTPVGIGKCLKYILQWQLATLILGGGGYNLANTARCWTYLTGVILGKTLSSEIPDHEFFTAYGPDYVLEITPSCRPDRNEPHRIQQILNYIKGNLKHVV

Histone deacetylase 1 = Histone deacetylase 1 (Homo sapiens, UniProt Q13547); assay: as §1
Sequence of Histone deacetylase 1 (Q13547 whole entry): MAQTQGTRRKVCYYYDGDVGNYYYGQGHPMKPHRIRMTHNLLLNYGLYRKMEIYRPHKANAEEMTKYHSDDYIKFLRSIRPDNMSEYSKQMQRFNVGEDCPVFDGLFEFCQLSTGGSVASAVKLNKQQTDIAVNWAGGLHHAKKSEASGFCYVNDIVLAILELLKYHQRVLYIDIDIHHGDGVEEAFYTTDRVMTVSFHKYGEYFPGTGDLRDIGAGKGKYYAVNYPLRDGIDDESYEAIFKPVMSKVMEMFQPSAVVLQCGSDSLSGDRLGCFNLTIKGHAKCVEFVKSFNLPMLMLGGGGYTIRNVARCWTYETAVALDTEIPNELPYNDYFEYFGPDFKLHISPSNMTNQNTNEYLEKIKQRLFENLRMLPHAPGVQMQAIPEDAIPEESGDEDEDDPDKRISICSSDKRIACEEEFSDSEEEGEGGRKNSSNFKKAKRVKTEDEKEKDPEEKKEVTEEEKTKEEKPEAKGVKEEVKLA

| Compound | IC50 (Histone deacetylase 8) | IC50 (Histone deacetylase 1) |
| --- | --- | --- |
| COc1cc(-c2nc3cc(/C=C/C(=O)NO)ccc3n2C)ccc1OCc1ccccc1 | 1710 nM | 1370 nM |
| COc1ccc(-c2nc3cc(/C=C/C(=O)NO)ccc3n2CC(O)CO)cc1 (stereo unspecified) | 262 nM | 1380 nM |
| O=C(/C=C/c1ccc2c(c1)nc(C1CCCCC1)n2CCCO)NO | 203 nM | 3240 nM |
